Target: hERG cardiac potassium channel (Kv11.1) (Homo sapiens, UniProt Q12809)
Assay type: cell-based
Settings: hamster, cho cells

Sequence of hERG cardiac potassium channel (Kv11.1) (Q12809 whole entry): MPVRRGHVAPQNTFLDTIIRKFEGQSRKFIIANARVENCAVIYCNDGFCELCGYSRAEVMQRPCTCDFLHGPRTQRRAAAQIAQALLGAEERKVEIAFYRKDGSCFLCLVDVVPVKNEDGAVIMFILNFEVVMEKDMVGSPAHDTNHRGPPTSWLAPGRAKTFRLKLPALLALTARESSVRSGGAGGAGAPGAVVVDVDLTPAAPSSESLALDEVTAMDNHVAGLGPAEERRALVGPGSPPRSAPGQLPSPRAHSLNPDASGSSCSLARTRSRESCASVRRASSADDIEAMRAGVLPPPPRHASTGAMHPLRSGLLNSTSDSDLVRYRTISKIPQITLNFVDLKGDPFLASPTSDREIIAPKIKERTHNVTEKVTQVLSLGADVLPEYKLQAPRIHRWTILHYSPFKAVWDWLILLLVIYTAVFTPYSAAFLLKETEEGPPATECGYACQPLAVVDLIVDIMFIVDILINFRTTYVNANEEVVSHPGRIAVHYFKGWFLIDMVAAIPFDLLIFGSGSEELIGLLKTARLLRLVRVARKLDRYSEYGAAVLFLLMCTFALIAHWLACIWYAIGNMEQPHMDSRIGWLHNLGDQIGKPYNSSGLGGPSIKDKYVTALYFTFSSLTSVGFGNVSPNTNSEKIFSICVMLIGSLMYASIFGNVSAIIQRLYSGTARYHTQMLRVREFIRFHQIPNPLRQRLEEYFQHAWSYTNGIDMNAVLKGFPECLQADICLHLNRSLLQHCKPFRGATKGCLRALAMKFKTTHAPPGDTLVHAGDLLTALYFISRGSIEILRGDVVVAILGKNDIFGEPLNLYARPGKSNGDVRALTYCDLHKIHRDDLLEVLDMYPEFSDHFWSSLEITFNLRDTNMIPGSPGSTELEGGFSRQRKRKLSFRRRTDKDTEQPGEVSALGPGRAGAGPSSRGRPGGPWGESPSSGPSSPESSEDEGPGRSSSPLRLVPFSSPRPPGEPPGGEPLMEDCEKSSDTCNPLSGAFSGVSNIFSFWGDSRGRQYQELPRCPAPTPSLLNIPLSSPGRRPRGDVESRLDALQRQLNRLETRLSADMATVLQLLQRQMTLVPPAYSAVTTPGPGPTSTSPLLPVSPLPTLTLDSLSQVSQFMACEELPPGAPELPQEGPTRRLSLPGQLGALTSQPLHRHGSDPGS

Work on AZA-2 yielded an IC50 of 2.2 µM.

Reference: paper PMC3946725 (Archives of toxicology, 2013)
